Data published in article PMC6587507, “Comparison of the metabolism of 10 chemicals in human and pig skin explants” (Journal of Applied Toxicology, 2018).
Where two headings read alike, the source gives them in different places. Marks after values point to notes of the source that are not given here.

Columns and labels:
[1] = ref Chemspider (www.chemspider.com), cited from earlier work
[2] = system: human abdominal skin explants; assay: Cutaneous distribution and mass balance of radioactivity in human skin explants
Description: (§1) Human abdominal skin was obtained (with consent for research from a commercial supplier [L’Union Clinic, Rangueil hospital and Icelltis, Toulouse, France] with certified ethical procedures) from six male and 34 female healthy donors, 41 ± 11 years of age, undergoing cosmetic surgery. Abdominal skin was kept at 4°C during transports and placed in culture within 3 hours of surgery. Pig ear skin was a waste product of the meat industry (without hot steam treatment) from domestic pigs (female Pietrain breed, 6 months old, 80‐100 kg) obtained from a local slaughterhouse (Montauban, France). Ears were taken from the animals within 5 minutes of slaughter and were kept at 4°C during transport to the laboratory, which lasted a maximum of 2 hours. Pig skin samples were dried and then gently shaved.
(§2) The experiment and the preparation of the culture medium were performed under sterile conditions. Human and pig skin was cut with a dermatome to a thickness of 450 ± 50 μm. Skin punches were seeded dermal side down in polycarbonate Transwell® inserts from Corning Life Sciences (Avon, France; 4.16 cm^2 application area with an 8 μm pore size filter). […] The inserts were placed in a six‐well plate containing 1.5 mL culture medium and the skin explants incubated in a standard incubator at 37°C, under an atmosphere of 5% CO2 and 50 ± 10% relative humidity. The culture medium was Dulbecco's modified Eagle medium without phenol red supplemented with 8 mM L‐glutamine, 2 μg/mL streptomycin/penicillin, 25 ng/mL fungizone and 50 ng/mL gentamycin. Skin explants were incubated for 1 hour before application of the formulation.
(§3) The dosing volume was 10 μL/cm^2. For pig skin metabolism studies, which were carried out before the human skin experiments to ensure the analytics were optimal, 2.4 nmol/cm^2 of each chemical (only the ^14C‐labeled form) was applied on the skin and incubated for 24 hours for the measurement of metabolites in the medium. These tissues were further incubated for a total of 48 hours, with a replacement of the culture medium after 24 hours. This longer incubation time and the standard doses of 2.4 nmol/cm^2 were used to maximize the likelihood of the skin forming metabolites to develop analytical methods. The metabolites profiles in pig and human skin were compared in the medium sample at 24 hours of incubation. The metabolite profiles for the 48‐hour timepoint are not reported here since humans skin metabolism was measured at 24 hours only; however, for completeness, the distribution of radioactivity at the end of both pig (48 hours) and human (24 hours) skin incubations is reported. […] The doses were obtained by mixing radiolabeled and cold chemical. One replicate disc per donor and per dose was used. All chemicals were tested on four donors of pig and human skin, except for 2‐AAF and 4‐amino‐3‐nitrophenol (4‐A‐3‐NP), for which three donors were used. The medium was removed after 24 hours of incubation and stored at −20°C for analysis.
(§4) At the end of the experiment, the trans‐wells were dismantled and washed with appropriate solvent for each chemical. […] The cotton swabs were placed in 5 mL of appropriate solvent in a scintillation counting flask and placed in a sonicator bath for 20 minutes. Aliquots of 1 mL were counted by liquid scintillation, after addition of 15 mL of scintillation liquid. Tissue culture inserts were washed with 10 mL of appropriate solvent. One aliquot of 1 mL was counted by liquid scintillation, after addition of 15 mL of scintillation liquid. After media removal, wells were washed twice with 1 mL of the appropriate solvent. Washing solutions were counted by liquid scintillation, after addition of 15 mL of scintillation liquid.
(§5) Pig skin explants were digested using 3 mL Soluable (60°C for 24 hours) and counted by liquid scintillation. Skin extraction process was adapted according to the physicochemical properties of each chemical and its potential metabolites.

pig ear skin explants [3] = assay: Cutaneous distribution and mass balance of radioactivity in pig skin explants
Description: as §1, §2, §3, §4, §5

pig ear skin explants [4] = system: pig ear skin explants
Description: as §1, §2, §3
(§6) After centrifugation, a 100 μL aliquot of the extract was counted by liquid scintillation. The pellet was dissolved in 3 mL Soluable (60°C, 24 hours) and then counted by liquid scintillation.
(§7) Analysis of the chemicals and their metabolites in medium after 24 hours of incubation with pig and human skin was measured by radio‐high‐performance liquid chromatography (HPLC) using an HPLC 1100 Series, Agilent and a Flow Scintillation Analyzer, Radiomatic 610 TR, Perkin Elmer (Villebon‐sur‐Yvette, France). […] To confirm that metabolites were the same in pig and human skin, medium samples were co‐injected on the new column. The metabolites were identified by LC‐electrospray ionization‐HRMS (HPLC‐ESI‐HRMS) with a RSLC3000 HPLC system coupled to a LTQ‐Orbitrap XL mass spectrometer (Thermo Scientific). The HPLC analytical conditions for identification and quantification of the metabolites for each chemical are summarized in Supporting information Table S1.

[5] = system: human abdominal skin explants
Description: as §1, §2, §3, §6, §7

[6] = human skin, end of incubation (24 h), mean ± SD
[7] = pig skin, end of incubation (48 h), mean ± SD
[8] = cinnamyl alcohol applied to pig skin, 24 h
[9] = cinnamyl alcohol applied to pig skin, medium 24 h
[10] = cinnamyl alcohol applied to human skin, 24 h
[11] = propyl paraben applied to pig skin, 24 h
[12] = propyl paraben applied to human skin, 24 h
[13] = vanillin applied to pig skin, 24 h
[14] = vanillin applied to human skin, 24 h

CC(=O)Nc1ccc2c(c1)Cc1ccccc1-2 [2‐AAF, 2‐acetyl aminofluorene]
Maximum solubility in ethanol ([1]; in ethanol): 9600 µg/mL
LogP [1]: 3.10
Maximum water solubility ([1]; water): 4 µg/mL
% Radioactivity in culture media after 24 h ([2]; human skin, 24 h): 48.3 ± 4.2%
Mass balance (% of applied dose at end of incubation) ([2]; human skin, 24 h): 91.6 ± 4.5 % of applied dose
Medium radioactivity [2, 6]: 48.3 ± 4.2 % of the applied dose
Skin radioactivity [2, 6]: 40.5 ± 5.5 % of the applied dose
Skin surface radioactivity [2, 6]: 2.8 ± 0.3 % of the applied dose
% Radioactivity in culture media after 24 h (pig ear skin explants [3]; pig skin, 2.4 nmol/cm^2): 52.8 ± 2.3%
Mass balance (% of applied dose at end of incubation) (pig ear skin explants [3]; pig skin, 48 h, 2.4 nmol/cm^2): 87.8 ± 1.1 % of applied dose
Medium radioactivity (pig ear skin explants [3]; [7]): 73.9 ± 1.1 % of the applied dose
Skin radioactivity (pig ear skin explants [3]; [7]): 12.6 ± 1.5 % of the applied dose
Skin surface radioactivity (pig ear skin explants [3]; [7]): 1.4 ± 0.4 % of the applied dose

Nc1ccc(OC2OC(C(=O)O)C(O)C(O)C2O)cc1[N+](=O)[O-] (stereo not shown) [4‐A‐3‐NP‐glucuronide]
Amount of metabolite in the medium after 24 h (pig ear skin explants [4]): 45.5 ± 0.2 % Applied dose
Amount of metabolite in the medium after 24 h [5]: 35.0 ± 2.4 % Applied dose

Nc1ccc(OS(=O)(=O)O)cc1[N+](=O)[O-] [4‐A‐3‐NP‐sulfate]
Amount of metabolite in the medium after 24 h (pig ear skin explants [4]): 1.8 ± 0.3 % Applied dose
Amount of metabolite in the medium after 24 h [5]: 9.98 ± 2.7 % Applied dose

O=C(O)c1ccccc1 [B (benzoic acid), benzoic acid]
Amount of metabolite in the medium after 24 h (pig ear skin explants [4]; [8]): 4.8 ± 1.0 % Applied dose
Metabolite as share of the total metabolites (pig ear skin explants [4]; [9]): 8 % of the total metabolites
Amount of metabolite in the medium after 24 h [5, 10]: 0.0 ^* % Applied dose

Cn1c(=O)c2c(ncn2C)n(C)c1=O [Caffeine]
% Radioactivity in culture media after 24 h ([2]; human skin, 24 h): 81.4 ± 3.3%
Mass balance (% of applied dose at end of incubation) ([2]; human skin, 24 h): 104.0 ± 0.7 % of applied dose
Medium radioactivity [2, 6]: 81.4 ± 3.3 % of the applied dose
Skin radioactivity [2, 6]: 21.8 ± 2.5 % of the applied dose
Skin surface radioactivity [2, 6]: 0.8 ± 0.8 % of the applied dose
% Radioactivity in culture media after 24 h (pig ear skin explants [3]; pig skin, 2.4 nmol/cm^2): 72.0 ± 4.0%
Mass balance (% of applied dose at end of incubation) (pig ear skin explants [3]; pig skin, 48 h, 2.4 nmol/cm^2): 109.2 ± 3.3 % of applied dose
Skin radioactivity (pig ear skin explants [3]; [7]): 8.4 ± 0.4 % of the applied dose
Skin surface radioactivity (pig ear skin explants [3]; [7]): 8.8 ± 10.6 % of the applied dose

O=c1ccc2ccc(O)cc2o1 [HC, 7‐hydroxycoumarin]
Amount of metabolite in the medium after 24 h (pig ear skin explants [4]; 7‐EC applied to pig skin, 24 h): 1.5 ± 0.8 % Applied dose
Amount of metabolite in the medium after 24 h ([5]; 7‐EC applied to human skin, 24 h): 1.4 ± 0.4 % Applied dose

O=C(O)[C@H]1O[C@@H](Oc2ccc3ccc(=O)oc3c2)[C@H](O)[C@@H](O)[C@@H]1O [HC‐glucuronide]
Amount of metabolite in the medium after 24 h (pig ear skin explants [4]): 4.9 ± 0.9 % Applied dose
Amount of metabolite in the medium after 24 h [5]: 2.2 ± 1.2 % Applied dose

O=c1ccc2ccc(OS(=O)(=O)[O-])cc2o1.[K+] [HC‐sulfate]
Amount of metabolite in the medium after 24 h (pig ear skin explants [4]): 2.6 ± 0.9 % Applied dose
Amount of metabolite in the medium after 24 h [5]: 0.9 ± 0.6 % Applied dose

O=C(O[C@@H]1O[C@H](C(=O)O)[C@@H](O)[C@H](O)[C@H]1O)c1ccccc1 [II (benzoic acid glucuronide), benzoic acid glucuronide]
Amount of metabolite in the medium after 24 h (pig ear skin explants [4]): 0.5 ± 0.04 % Applied dose
Amount of metabolite in the medium after 24 h [5]: 4.6 ± 0.4 % Applied dose

O=C(O)/C=C\C(=O)O [II (maleic acid), maleic acid]
Amount of metabolite in the medium after 24 h (pig ear skin explants [4]; [11]): 5.6 ± 0.3 % Applied dose
Amount of metabolite in the medium after 24 h [5, 12]: 0.5 ± 0.03 % Applied dose

COc1cc(C=O)ccc1O[C@@H]1O[C@H](C(=O)O)[C@@H](O)[C@H](O)[C@H]1O [III (vanillin glucuronide), vanillin glucuronide]
Amount of metabolite in the medium after 24 h (pig ear skin explants [4]): 2.9 ± 0.8 % Applied dose

O=Cc1ccc(O)c(O)c1 [IV (Protocatechuic aldehyde), protocatechuic aldehyde]
Amount of metabolite in the medium after 24 h (pig ear skin explants [4]; [13]): 20.7 ± 1.0 % Applied dose
Amount of metabolite in the medium after 24 h (pig ear skin explants [4]; vanillin applied to pig skin, 24 h, listed as protocatechuic aldehyde): 21 % Applied dose
Amount of metabolite in the medium after 24 h [5, 14]: 2.4 ± 1.1 % Applied dose

CCCOC(=O)c1ccc(O)cc1 [Propyl paraben]
% Radioactivity in culture media after 24 h ([2]; both, human, 24 h): 66.0 ± 9.2%
Mass balance (% of applied dose at end of incubation) ([2]; both, human, 24 h): 91.8 ± 6.6 % of applied dose
Medium radioactivity ([2]; both, human, 24 h): 61.5 ± 3.9 % of the applied dose
Skin radioactivity ([2]; both, human, 24 h): 27.6 ± 7.0 % of the applied dose
Skin surface radioactivity ([2]; both, human, 24 h): 2.8 ± 2.3 % of the applied dose
Parent compound in the medium after 24 h (pig ear skin explants [4]; female, Pietrain, pig, 24 h): 0.0 % Applied dose
Total metabolites in the medium after 24 h (pig ear skin explants [4]; female, Pietrain, pig, 24 h): 50.3 ± 1.1 % Applied dose
Number of metabolites detected in the culture medium ([5]; both, human, 24 h): 12
Parent compound in the medium after 24 h ([5]; both, human, 24 h): 0.2 ± 0.2 % Applied dose
Total metabolites in the medium after 24 h ([5]; both, human, 24 h): 55.8 ± 2.9 % Applied dose
Mass balance (% of applied dose at end of incubation) (pig ear skin explants [3]; female, Pietrain, pig, 48 h): 98.7 ± 3.3 % of applied dose
Medium radioactivity (pig ear skin explants [3]; female, Pietrain, pig, 48 h): 77.8 ± 4.8 % of the applied dose
Skin radioactivity (pig ear skin explants [3]; female, Pietrain, pig, 48 h): 15.9 ± 3.0 % of the applied dose
Skin surface radioactivity (pig ear skin explants [3]; female, Pietrain, pig, 48 h): 5.0 ± 1.8 % of the applied dose

O=C(O)C1OC(Oc2cccc(O)c2)C(O)C(O)C1O (stereo not shown) [R‐glucuronide]
Amount of metabolite in the medium after 24 h (pig ear skin explants [4]): 48.6 ± 0.8 % Applied dose
Amount of metabolite in the medium after 24 h [5]: 33.7 ± 0.6 % Applied dose

O=S(=O)(O)Oc1cccc(O)c1 [R‐sulfate]
Amount of metabolite in the medium after 24 h (pig ear skin explants [4]): 0.5 ± 0.03 % Applied dose
Amount of metabolite in the medium after 24 h [5]: 8.2 ± 0.1 % Applied dose

O=C(O)CNC(=O)c1ccccc1 [V (benzoic acid‐glycine conjugate), benzoylglycine]
Amount of metabolite in the medium after 24 h (pig ear skin explants [4]; [8]): 4.4 ± 1.1 % Applied dose
Amount of metabolite in the medium after 24 h [5, 10]: 1.3 ± 0.1 % Applied dose

COc1cc(C(=O)O)ccc1O [V (vanillic acid), vanillic acid]
Amount of metabolite in the medium after 24 h (pig ear skin explants [4]; [13]): 5.8 ± 0.1 % Applied dose
Amount of metabolite in the medium after 24 h [5, 14]: 33.5 ± 4.0 % Applied dose
Amount of metabolite in the medium after 24 h ([5]; vanillin applied to human skin, 24 h, listed as vanillic acid): 34 % Applied dose

O=C(O)/C=C/c1ccccc1 [VI (cinnamic acid), cinnamic acid]
Amount of metabolite in the medium after 24 h (pig ear skin explants [4]; [8]): 9.0 ± 0.4 % Applied dose
Metabolite as share of the total metabolites (pig ear skin explants [4]; [9]): 15 % of the total metabolites
Amount of metabolite in the medium after 24 h [5, 10]: 0.8 ± 1.5 % Applied dose

O=C(O)c1ccc(O)cc1 [X (4‐HBA), 4‐hydroxybenzoic acid]
Amount of metabolite in the medium after 24 h (pig ear skin explants [4]; [11]): 9.5 ± 0.6 % Applied dose
Amount of metabolite in the medium after 24 h (pig ear skin explants [4]; propyl paraben applied to pig skin, 24 h, listed as 4‐hydroxybenzoic acid): 9.5 % Applied dose
Amount of metabolite in the medium after 24 h [5, 12]: 42.09 ± 2.8 % Applied dose

hydroxycinnamic acid [I (HCA)]
Amount of metabolite in the medium after 24 h (pig ear skin explants [4]): 15.7 ± 1.3 % Applied dose
Metabolite as share of the total metabolites (pig ear skin explants [4]): 27 % of the total metabolites
Amount of metabolite in the medium after 24 h [5]: 18.0 ± 0.9 % Applied dose
Metabolite as share of the total metabolites [5]: 25 % of the total metabolites
